Measurements published in patent publication US10745370B2, “Farnesyl transferase inhibitors and uses thereof” (MACKAY MEMORIAL HOSPITAL, priority 2016, dated 2020).
Entries after “also recorded” stand apart in the source; their conditions may differ.

Legend:
M1 macrophages = assay: Cell marker expression on M1 macrophages, flow cytometry; assay type: cell-based, human; conditions: for CD14: M1 population after treatment: Table 5; for CD80: change in M1 population: Table 6; for CD206: change in M1: Table 7; for CD206 expression on M1 macrophages: control 14.27%; for CD80 expression on M1 macrophages: control 71.34%; for CD14 expression on M1 macrophages: control 99.83%
Description: (§1) M1 differentiation of freshly isolated CD14^+ cells was induced by the addition of lipopolysaccharide (LPS), while M2 differentiation of freshly isolated CD14^+ cells was induced by the addition of IL-4. Then, the present compounds (e.g., Mib-5, 6, 7, 8, 9, or 10) were added at the indicated dosages. 6 days later, the population of the differentiated macrophages were then determined by cell viability analysis.
(§2) The expression of various types of cell markers, such as CD14, CD206, and CD80 expressed on the surface of macrophages, and CD1a, CD14, CD83, and HLA-DR expressed on the dendritic cells, were respectively detected by fluorescein isothiocyanate (FITC) and phycoerythrin (PE)-conjugated monoclonal antibodies in FACS caliber flowcytometer. Monoclonal antibodies used in this examples included anti-CD14 (IgG-FITC), anti-CD206 (IgG-FITC), anti-CD80-PE, anti-CD1a-PE, anti-CD83-PE and anti-human leukocyte antigen (HLA)-DR-PE. Results were analyzed by CellQuest software.

M2 macrophages [1] = assay: Cell marker expression on M2 macrophages, flow cytometry; assay type: cell-based, human; conditions: for CD14: M2 population after treatment: Table 5; for CD80: change in M2 population: Table 6; for CD206: change in M2: Table 7; for CD80 expression on M2 macrophages: control 47.64%; for CD14 expression on M2 macrophages: control 55.66%; for CD206 expression on M2 macrophages: control 74.49%
Description: as §1, §2

dendritic cells = assay: Trypan blue exclusion analysis of dendritic cells; assay type: cell-based, human; conditions: 10 μM, seven days, FIG. 7
Description: (§3) Mononuclear cells (MNCs) were separated from the peripheral blood of healthy donors obtained with written consent by use of Ficoll-Hypaque density centrifugation, followed by positive selection with magnetic anti-CD14 microbeads.
(§4) The isolated CD14^+ cells were cultivated in Minimum Essential Medium (MEM medium) supplemented with 10% fetal bovine serum (FBS), 100 ng/ml granulocyte-macrophage colony-stimulating factor (GM-CSF, Gentaur), and 50 ng/ml interleukin-4 (IL-4, R&D), and kept in an environment of 37° C. with 5% CO2/95% air.
(§5) To evaluate the effects of the present compound on dendritic cells, the CD14^+ cells were respectively treated with 10 μM of test compound (i.e., Mib-5, Mib-6, Mib-7, Mib-8, Mib-9, and Mib-10) on day 1. Then, on day 3, the cultured medium in each well was replenished by adding half the volume of the cultured medium containing the same treatment as indicated above. Then, on day 6, a cytokine cocktail containing IL-1, IL-6, and tumor necrosis factor-α (TNF-α) was added to induce maturation. On day 7, the differentiated dendritic cells were collected and subjected to further assays, including viability assay, morphology observation, and cell marker staining.
(§6) The dye exclusion test is used to determine the number of viable cells present in a cell suspension. […] In this test, the cells were first treated with a test compound (i.e., Mib-5, 6, 7, 8, 9 or 10) for a certain period of time (e.g., 72 hours), then the cells were harvested and re-suspended in suitable buffer solution. The cell suspension was then mixed with trypan blue dye and then visually examined to determine whether cells had taken up or excluded the dye. A viable cell will have a clear cytoplasm, whereas a nonviable cell will have a blue cytoplasm. The concentration required to reduce viability by 50% (IC50) after 72 hours was extrapolated from the dose-response curves by different concentrations of the test compound using a second-order polynomial regression model and analyzing with SigmaPlot Software (Systat Software Inc., San Jose, Calif.).
In this example, the effects of the present compounds on dendritic cells were investigated. Briefly, the dendritic cells were respectively treated with 10 μM of Mib-5, Mib-6, Mib-7, Mib-8, or Mib-10. Seven days later, the cells were harvested and subjected to analysis of morphology observation, cell viability, and/or cell marker expression.

macrophages [2] = assay: Morphology of macrophages (photographs, Liu's staining); assay type: cell-based, human; conditions: for morphology and adhesion of treated macrophages: 10 μM, FIG. 1 panel B; for morphology of cells by Liu's staining compared with control cells: FIG. 1 panel C
Description: as §3, §4, §5
(§7) As to the effects of the present compound on macrophages, the CD14^+ cells were cultivated and treated as indicated above except the addition of cytokine cocktail on day 6. The macrophages were collected on day 6 and subjected to further assays, including viability assay, trypan blue exclusion test, morphology observation, cell marker staining, and phagocytotic activity analysis.
Cells were transferred to a glass coverslide and covered with solution A (0.5 g of methylene blue and 1.7 g of Eosin yellow dissolved in 1,000 ml of ethanol). After 45 seconds, solution B (1.3 g of azure, 1.4 g of methylene blue, 23.38 g of Na2HPO4, 6.5 g of KH2PO4, dissolved in 1,000 ml of distilled water) was added in the proportion of 2 parts of B to 1 part of A. Mixed the solutions well by blowing the surface. The slide was left standing for 90 seconds and then washed off the staining solution rapidly by running water. The morphology of stained cells was then examined under microscope.

M2 macrophages [3] = assay: Differentiation analysis, cell viability of M2 macrophages; assay type: cell-based, human; conditions: for Cell viability of M2 macrophages: IL-4-induced M2 differentiation, 6 days, control 100%
Description: as §1, with “analysis. The cell viability was measured by cell counting kit-8 (CCK-8, Sigma). The half maximal inhibitory concentrations (IC50) of the test compounds on macrophages or dendritic cells were calculated.” for “analysis.”

macrophages [4] = assay: Trypan blue exclusion test on macrophages; assay type: cell-based; conditions: trypan blue analysis, FIG. 2
Description: as §3, §4, §5, §7, §6

Structure (SMILES) | CD14: M1 population after treatment (M1 macrophages) | CD80: change in M1 population (M1 macrophages) | CD206: change in M1 (M1 macrophages) | CD206 expression on M1 macrophages (M1 macrophages) [%] | CD80 expression on M1 macrophages (M1 macrophages) [%] | CD14 expression on M1 macrophages (M1 macrophages) [%] | CD14: M2 population after treatment (M2 macrophages [1]) | CD80: change in M2 population (M2 macrophages [1]) | CD206: change in M2 (M2 macrophages [1]) | CD80 expression on M2 macrophages (M2 macrophages [1]) [%] | CD14 expression on M2 macrophages (M2 macrophages [1]) [%] | CD206 expression on M2 macrophages (M2 macrophages [1]) [%] | levels of viable dendritic cells (dendritic cells) | morphology and adhesion of treated macrophages (macrophages [2]) | morphology of cells by Liu's staining compared with control cells (macrophages [2]) | Cell viability of M2 macrophages (M2 macrophages [3]) [%] | change in M2 population of macrophages compared with control (M2 macrophages [3]; Table 4) | cell viability / cytotoxicity toward macrophages (macrophages [4]) | increase of M2 population (M2 macrophages [3]; compared with control, Table 4)
COC1=CC(=O)[C@@]2(c3cc(=O)c4ccc(OC)cc4o3)[C@H](C[C@]3(C)[C@@H](C(=O)O)CC=C4[C@H]3CCCC4(C)C)C(C)=CC[C@H]2C1=O [Mib-5] | remained relatively unchanged | reduction | significant decrease | 5.41 | 11.94 | 97.03 | significant decrease | increase | increase | 53.03 | 80.33 | 78.77 | reduced | became rounded up, and were less adhesive | not significantly affected | 86.4 | slight decrease | did not adversely affect cell viability; also recorded: no significant cytotoxicity | –
COC1=CC(=O)[C@@]2(c3cc(=O)c4c(O)cc(O)cc4o3)[C@H](C[C@]3(C)[C@@H](C(=O)O)CC=C4[C@H]3CCCC4(C)C)C(C)=CC[C@H]2C1=O [Mib-7] | remained relatively unchanged | reduction | significant decrease | 4.9 | 23.04 | 98.66 | significant decrease | increase | increase | 49.58 | 89.76 | 88.88 | reduced | became rounded up, and were less adhesive | not significantly affected | 136.4 | – | did not adversely affect cell viability; also recorded: no significant cytotoxicity | about 40%
